Data on 34 compounds can be found in a melting point compilation (Tetko et al.; mined from patent text by program, amines drawn as free bases though some values may be those of a salt).

`CC(C(=O)OCc1ccc([N+](=O)[O-])cc1)N(C(=O)OC(C)(C)C)C1CC1` (centres undefined) showed a melting point of 117 to 118 °C.
Compound `COc1ccc(-n2nc(C(F)F)cc2-c2ccc(S(C)(=O)=O)cc2)cc1Cl` gave a melting point of 169 to 171 °C.
The result for `C[Si](C)(C)CCCCCNC(=O)n1cc(F)c(=O)[nH]c1=O` reads 118 to 119 °C; that for `O=C(c1cc2ccc(Br)cc2o1)C12CC3CC(CC(C3)C1)C2`, 128 to 130 °C.
Compound `COc1ccc2c(=O)c3c(OC)cccc3oc2c1OC` returned a melting point of 145 to 146 °C.
The result for `CCOC(=O)C1=C(C)NC(C#N)=C(C(=O)OCC)C1c1ccccc1/C=C/C(=O)OC(C)(C)C` (centres undefined) reads 146 to 147 °C; that for `COc1cc2cnnc(N3CCC(CC(C)O)CC3)c2cc1OC` (centres undefined), 154 to 156 °C; that for `N#Cc1ccc(-c2ccn(-c3ccc(C#N)cc3)c2)cc1`, 234 to 240 °C.
`O=C1N(Cc2ccc(-c3ccccn3)cc2)c2ccccc2C12COc1cc3c(cc12)CCO3` (centres undefined) showed a melting point of 217 to 219 °C.
The result for `COc1ccc2ccc3c(c2c1)CC(C(=O)O)CO3` (centres undefined) reads 165 °C.
The figure for `N#Cc1ccc2oc(CCCCCc3cc4cc(C#N)ccc4o3)cc2c1` is 133 to 134 °C; for `Nc1ccc(C(=O)NC2CCN(c3ccccc3)C2)cc1` (centres undefined) it is 213 to 216 °C.
Consider `Cc1ccc(-c2ccc(NN)nn2)c(OCC(O)CNC(C)(C)C)c1` (centres undefined), for which the melting point was in the range of 145 to 155 °C.
Regarding `COC(=O)CCc1nc(CCc2ccc(C(=O)OC)cc2)ccc1OCCCC/C=C/c1ccc(OC)cc1`, the melting point is 59 to 61 °C.
The figure for `O=C(NCc1ccccn1)Nc1cc(-n2cc(-c3ccccc3)oc2=O)ccn1` is 208 to 209 °C; for `N#CCCNC(=O)c1cccc(-c2cccc3sc(Cc4ccc(F)c(F)c4)cc23)c1` it is 123 to 124 °C.
The figure for `CCC(Cc1ccc(OC)c(OCCc2ccc(C(F)(F)F)cc2)c1)C(=O)O` (centres undefined) is 64 to 66 °C; for `CCOC(=O)C(C)(C)Oc1ccc(C(=O)c2cccs2)cc1` it is 45 °C.
`CC(=C1SCCS1)c1ccc(F)cc1` gave a melting point of 27 to 31 °C.
The figure for `CS(=O)CC(=O)c1ccc(F)cc1` (centres undefined) is 94.5 to 96 °C; for `CCC(C)(C)c1ccc(Oc2cc(NC(=O)Nc3ccc(C#N)cc3)c(O)cc2[N+](=O)[O-])c(C(C)(C)CC)c1` it is 212 to 215 °C.
The figure for `Cc1ccc2ccc3c(c2c1)C(C)(C)C(=O)O3` is 88 to 89 °C; for `Cc1cccc(N(CCC(=O)O)Cc2ccc3nc(N)n(Cc4nc(C)ccc4O)c3c2)c1` it is 165 °C; for `COC(=O)c1cccc(/C=C/C(=O)Nc2ccccc2NC(=O)OC(C)(C)C)c1` it is 79 to 82.4 °C.
The result for `CC(c1cc(Cl)ccc1N1CCCCC1C)C(C(N)=O)c1ccc(C(=O)O)cc1` (centres undefined) reads 195 to 198 °C; that for `COc1ccc2[nH]nc(N3CCN(CCCn4c(=O)[nH]c5ccccc54)CC3)c2c1`, 195 to 197 °C.
Turning to `CC(CNC(=O)Cc1ccccc1)NCC(O)c1ccccc1` (centres undefined), the melting point lay in the range of 96 to 98 °C.
Consider `CCCCCCOC(=O)C1=C(C)NN=C(CC)C1c1cccc([N+](=O)[O-])c1` (centres undefined), for which the melting point turned out to be 92 °C.
The result for `C=CCC(C)(C)C(O)C(c1cccc(Cl)c1)n1ccnc1` (centres undefined) reads 95 °C; that for `Cc1sc2c(Br)c3ccccc3c(-c3ccc(O)c([N+](=O)[O-])c3)c2c1C`, 183 to 185 °C.
`CNC(=NS(C)(=O)=O)NCCSCc1nccc(NC(N)=NCC(F)(F)F)n1` had a melting point of 148 to 149 °C.
The result for `COc1cc(C(=O)c2nc(C(=O)O)c3ccccn23)ccc1N` reads 226 °C; that for `COc1ccc(C(C)(C)C)c(O)c1C(=O)Oc1ccccc1`, 74 to 75 °C.
Regarding `COC1=CC2=C(CN1OC)C1=C(c3cc4c(cc3C1=O)OCO4)C(CCCC(C)O)C2=O` (centres undefined), the melting point was 288 to 290 °C.
